By fraction unbound is commonly meant the share of the substance not bound to proteins or other matrix. Lower therefore signals little free substance. As a reminder, the Km is the substrate concentration at which the rate is half of its maximum. One may read the Vmax as the top rate of the reaction or transport when substrate is in excess.

For data set [1], the system named is Liver microsome. The experiment in a line: Unbound intrinsic clearance in human liver microsomes assessed per mg of protein after 10 mins in presence of UDPGA and 0.1% fatty acid free BSA. Format: ADME. A general note: Microsomes from liver hold many membrane-bound enzymes, among them those of drug oxidation.
The test system of data set [2] is Liver microsome. Kind of data set: Unbound intrinsic clearance in human liver microsomes assessed per mg of protein after 10 mins in presence of UDPGA and absence of fatty acid free BSA. Format: ADME.
The test system of data set [3] is Liver microsome. The experiment in a line: Unbound intrinsic clearance in human liver microsomes assessed per mg of protein after 10 mins in presence of UDPGA and 2% fatty acid free BSA. The data set is classed as ADME.
Data set [4] deals with T1, UDP-glucuronosyltransferase 1A6 (Homo sapiens, UniProt P19224).
T1 sequence (P19224 whole entry): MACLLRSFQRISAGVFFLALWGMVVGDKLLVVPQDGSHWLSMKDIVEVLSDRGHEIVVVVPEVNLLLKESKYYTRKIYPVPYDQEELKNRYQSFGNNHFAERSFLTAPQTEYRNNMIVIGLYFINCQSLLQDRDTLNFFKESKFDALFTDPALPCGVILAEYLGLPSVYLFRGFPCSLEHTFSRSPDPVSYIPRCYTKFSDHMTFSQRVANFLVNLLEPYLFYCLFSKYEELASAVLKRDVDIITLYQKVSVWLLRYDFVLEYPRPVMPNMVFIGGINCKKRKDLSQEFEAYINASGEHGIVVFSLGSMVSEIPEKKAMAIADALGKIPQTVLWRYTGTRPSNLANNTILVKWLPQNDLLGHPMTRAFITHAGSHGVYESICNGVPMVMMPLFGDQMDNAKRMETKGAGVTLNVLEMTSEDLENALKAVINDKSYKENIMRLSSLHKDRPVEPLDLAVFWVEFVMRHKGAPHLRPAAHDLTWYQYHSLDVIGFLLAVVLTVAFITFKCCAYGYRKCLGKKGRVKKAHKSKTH
Kind of data set: Activity of human recombinant UGT1A6 expressed in baculovirus-infected insect cells assessed as enzyme-mediated glucuronidation per mg of protein after 10 mins in presence of UDPGA. The data set is classed as ADME.

A short description of data set [5]: Fraction unbound in human liver microsomes at 1 to 250 uM after 10 mins by ultrafiltration method in absence of fatty acid free BSA. Format: ADME.
The target of data set [6] is T2, UDP-glucuronosyltransferase 1A10 (Homo sapiens, UniProt Q9HAW8).
T2 sequence (Q9HAW8 whole entry): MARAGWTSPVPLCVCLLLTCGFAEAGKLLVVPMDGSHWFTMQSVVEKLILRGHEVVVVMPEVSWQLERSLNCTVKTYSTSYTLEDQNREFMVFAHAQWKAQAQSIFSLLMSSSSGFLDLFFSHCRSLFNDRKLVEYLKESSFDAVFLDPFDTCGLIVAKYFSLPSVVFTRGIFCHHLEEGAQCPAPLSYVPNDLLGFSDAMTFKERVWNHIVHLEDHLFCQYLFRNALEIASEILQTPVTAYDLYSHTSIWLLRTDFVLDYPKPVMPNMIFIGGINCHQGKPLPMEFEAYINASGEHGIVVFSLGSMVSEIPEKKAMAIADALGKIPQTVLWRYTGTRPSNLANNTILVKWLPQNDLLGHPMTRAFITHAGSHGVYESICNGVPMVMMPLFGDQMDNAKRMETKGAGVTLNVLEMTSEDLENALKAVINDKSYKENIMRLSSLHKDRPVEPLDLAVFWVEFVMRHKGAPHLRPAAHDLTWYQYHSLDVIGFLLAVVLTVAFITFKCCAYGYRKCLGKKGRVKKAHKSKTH
Kind of data set: Activity of human recombinant UGT1A10 expressed in baculovirus-infected insect cells assessed as intrinsic clearance for enzyme-mediated glucuronide formation per mg of protein at 1 to 250 uM after 10 mins in presence of UDPGA. The data set is classed as ADME.

A short description of data set [7]: Drug metabolism in human liver microsomes assessed as glucuronidation after 10 mins by Michaelis-Menten plot analysis in presence of UDPGA and 0.1% fatty acid free BSA. Format: ADME. The conditions noted are these: read-out: Km(unbound).
The nature of data set [8]: Drug metabolism in human intestinal microsomes assessed as glucuronidation at 30 uM after 5 mins by LC-MS/MS analysis relative to vehicle-treated control in presence of beta-estradiol and UDPGA. The data set is classed as ADME, Intestine, Microsome. The conditions noted are these: with beta-estradiol, read-out: Drug metabolism.
The nature of data set [9]: Fraction unbound incubation mixture containing human recombinant UGT1A9 at 1 to 250 uM after 10 mins by ultrafiltration method in presence of 0.1% fatty acid free BSA.
The test system of data set [10] is Liver microsome. Kind of data set: Drug metabolism in human liver microsomes assessed as glucuronidation per mg of protein after 10 mins by Michaelis-Menten plot analysis in presence of UDPGA and 2% fatty acid free BSA. Format: ADME.
Data set [11] relates to Liver microsome. Kind of data set: Intrinsic clearance in human liver microsomes assessed per mg of protein at 1 to 250 uM after 10 mins in presence of UDPGA. Format: ADME.
For data set [12], the target named is T3, UDP-glucuronosyltransferase 1A9 (Homo sapiens, UniProt O60656).
T3 sequence (O60656 whole entry): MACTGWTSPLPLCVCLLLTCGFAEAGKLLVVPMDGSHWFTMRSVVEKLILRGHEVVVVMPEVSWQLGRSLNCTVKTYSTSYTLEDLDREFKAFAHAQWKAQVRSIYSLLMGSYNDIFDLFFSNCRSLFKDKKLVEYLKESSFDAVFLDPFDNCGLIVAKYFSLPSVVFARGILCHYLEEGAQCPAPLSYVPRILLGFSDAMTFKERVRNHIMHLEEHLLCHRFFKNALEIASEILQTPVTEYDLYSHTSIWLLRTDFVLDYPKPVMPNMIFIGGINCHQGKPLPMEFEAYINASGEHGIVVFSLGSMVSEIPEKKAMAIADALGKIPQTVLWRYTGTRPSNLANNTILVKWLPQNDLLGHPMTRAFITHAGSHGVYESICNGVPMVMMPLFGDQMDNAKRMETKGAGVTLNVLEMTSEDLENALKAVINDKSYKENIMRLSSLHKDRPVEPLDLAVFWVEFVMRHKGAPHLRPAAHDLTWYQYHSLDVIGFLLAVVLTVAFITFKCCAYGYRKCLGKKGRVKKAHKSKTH
Kind of data set: Activity of human recombinant UGT1A9 expressed in baculovirus-infected insect cells assessed as intrinsic clearance for enzyme-mediated glucuronide formation per mg of protein at 1 to 250 uM after 5 mins by Michaelis-Menten plot analysis in presence of UDPGA. Format: ADME.

Data set [13] in a line: Drug metabolism in human liver microsomes assessed as glucuronidation at 30 uM after 10 mins by LC-MS/MS analysis relative to vehicle-treated control in presence of propofol and UDPGA. The data set is classed as ADME. The conditions noted are these: with propofol, read-out: Drug metabolism.

Consider `COc1ccc(C(=O)Nc2cccc(O)c2NC(=O)c2ccc(N3CCCN(C)CC3)cc2)cc1.O=C(O)CCC(=O)O`, for which the figures for the CL free in the data set on Liver microsome [1], with Liver microsome [2] and with Liver microsome [3] were 184 µL/min/mg, 17.4 µL/min/mg and 178 µL/min/mg, respectively. In [4], the Drug metabolism is < 0.01 nmol/min/mg. This compound also showed a fraction unbound at 10 min, up to 250 µM in [5] of 0.873. In addition, the results for the clearance in [6] and in [12] were 39.8 µL/min/mg and 132 µL/min/mg, respectively. In data set [7], the Km at 10 min stood at 17.7 µM. In data set [8], the activity at 5 min, 30 µM was 22.6%. Moreover, the Fu in [9] came to 0.755. For the same compound, the Vmax in the data set with Liver microsome [10] is 3.14 nmol/min/mg. Moreover, the CLint in the data set with Liver microsome [11] came out at 8.71 µL/min/mg. Further, in [13], the activity at 10 min, 30 µM is 9%.
